From publication PMC13576449, “Small-Molecule Activators of PRMT1: Discovery, SAR Analyses, and Proapoptotic Effects in Pancreatic Cancer Cells” (Journal of Medicinal Chemistry, 2026)

Target: T1, FLAG-tagged PRMT6 (Homo sapiens, UniProt Q96LA8)
T1 construct: The complete ORFs of human PRMT3 and PRMT6 were inserted; made in house; host or cells: Sf9 insect cells (baculovirus)
Assay: Fluorescence-based in vitro PRMT assay (F-PRMT assay), PRMT6
Type: biochemical
Conditions: for Experimental result (PRMT6): vs solvent control = 100%
How it was run: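 Baculovirus/Sf9-expressed FLAG-PRMTs (human PRMT3, PRMT6; mouse PRMT4), anti-FLAG purified and used bead-bound, methylated Bz-Arg-AMC with SAM for 2 h at 37 °C, 1,000 rpm. Technical triplicates; no-SAM negative controls.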

T1 sequence (Q96LA8 whole entry): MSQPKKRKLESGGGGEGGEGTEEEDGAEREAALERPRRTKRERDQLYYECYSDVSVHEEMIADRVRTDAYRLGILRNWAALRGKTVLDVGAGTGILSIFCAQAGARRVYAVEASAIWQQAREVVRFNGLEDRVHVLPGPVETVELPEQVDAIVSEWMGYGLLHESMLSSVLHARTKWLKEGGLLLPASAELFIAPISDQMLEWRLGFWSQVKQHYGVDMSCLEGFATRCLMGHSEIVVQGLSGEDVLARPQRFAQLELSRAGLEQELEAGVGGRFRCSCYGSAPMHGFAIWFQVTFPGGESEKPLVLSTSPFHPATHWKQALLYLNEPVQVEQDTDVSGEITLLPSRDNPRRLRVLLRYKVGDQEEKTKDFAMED

CN(C)Cc1cccc(CN/C=C2\C(=O)NC(=O)c3ccccc32)c1.Cl [TR-07, (Z)-1-[3-({[(1,3-Dioxo-2,3-dihydroisoquinolin-4(1H)-lidene)methyl]amino}methyl)phenyl]-N,N-dimethylmethanaminium chloride]
effect on PRMT6 activity (in words) (100 μM compound): neither positively nor negatively influencing | Experimental result (PRMT6) (Table 1, 100 μM compound, 2 μM PRMT, n = 3, racemates used): PRMT6 n.e. (Compounds, which did not significantly affect the catalytic activity (less than ±6% change or not significant p-value), are marked with [drawing 8] (no effect)) | Experimental result (PRMT6) (Table S3, 100 µM compound, n≥3): n.e. (did not significantly affect the catalytic activity (less than ±6% change or not significant p-value), are marked with n.e. (no effect))
